From US10364247B2, “Preparation and use of novel protein kinase inhibitors” (Ruijin Hospital Affiliated to Shanghai Jiao Tong University …, priority 2015, dated 2019)

Key:
Experiment in all cases: KINOMEscan competition binding
[1] = target: ABL1(Q252H)-nonphosphorylated (Homo sapiens, UniProt P00519, Q252H); conditions: read-out: Percent Control
Method in brief: (§1)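 Primary screen at 10 μM; quantitative competition with immobilized active-site ligand; % Ctrl reported, stronger hits giving lower numbers.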

[2] = target: HPK1 (Homo sapiens, UniProt Q92918); conditions: HPK1 (Entrez MAP4K1), read-out: Percent Control
Method in brief: as §1

[3] = target: T1, FGFR4 (Homo sapiens, UniProt P22455); conditions: read-out: Percent Control
T1 construct: purchased KINOMEscan (screening platform)
Method in brief: as §1

[4] = target: T2, ALK (Homo sapiens, UniProt Q9UM73); conditions: read-out: Percent Control
T2 construct: purchased KINOMEscan (screening service)
Method in brief: as §1

[5] = target: EGFR(G719S) (Homo sapiens, UniProt P00533, G719S); conditions: read-out: Percent Control
Method in brief: as §1

[6] = target: KIT(L576P) (Homo sapiens, UniProt P10721, L576P); conditions: read-out: Percent Control
Method in brief: as §1

[7] = target: T3, KIT(D816V) (Homo sapiens, UniProt P10721, D816V); conditions: read-out: Percent Control
T3 construct: purchased KINOMEscan (panel service)
Method in brief: as §1

[8] = target: BMX (Homo sapiens, UniProt P51813); conditions: read-out: Percent Control
Method in brief: as §1

[9] = target: SLK (Homo sapiens, UniProt Q9H2G2); conditions: read-out: Percent Control
Method in brief: as §1

[10] = target: T4, FLT3(R834Q) (Homo sapiens, UniProt P36888, R834Q); conditions: read-out: Percent Control
T4 construct: purchased KINOMEscan (screening service)
Method in brief: as §1

[11] = target: T5, TRKC (Homo sapiens, UniProt Q16288); conditions: TRKC (Entrez NTRK3), read-out: Percent Control
T5 construct: purchased KINOMEscan (screening service)
Method in brief: as §1

[12] = target: STK36 (Homo sapiens, UniProt Q9NRP7); conditions: read-out: Percent Control
Method in brief: as §1

[13] = target: FLT1 (Homo sapiens, UniProt P17948); conditions: read-out: Percent Control
Method in brief: as §1

[14] = target: EPHB3 (Homo sapiens, UniProt P54753); conditions: read-out: Percent Control
Method in brief: as §1

[15] = target: TIE1 (Homo sapiens, UniProt P35590); conditions: read-out: Percent Control
Method in brief: as §1

[16] = target: FGR (Homo sapiens, UniProt P09769); conditions: read-out: Percent Control
Method in brief: as §1

[17] = target: CTK (Homo sapiens, UniProt P42679); conditions: CTK (Entrez MATK), read-out: Percent Control
Method in brief: as §1

[18] = target: MLK1 (Homo sapiens, UniProt P80192); conditions: MLK1 (Entrez MAP3K9), read-out: Percent Control
Method in brief: as §1

[19] = target: FLT3(D835H) (Homo sapiens, UniProt P36888, D835H); conditions: read-out: Percent Control
Method in brief: as §1

[20] = target: ABL1(F317L)-nonphosphorylated (Homo sapiens, UniProt P00519, F317L); conditions: read-out: Percent Control
Method in brief: as §1

[21] = target: T6, MERTK (Homo sapiens, UniProt Q12866); conditions: read-out: Percent Control
T6 construct: purchased KINOMEscan (screening service)
Method in brief: as §1

[22] = target: ABL1(F317I)-phosphorylated (Homo sapiens, UniProt P00519, F317I); conditions: read-out: Percent Control
Method in brief: as §1

[23] = target: EPHA7 (Homo sapiens, UniProt Q15375); conditions: read-out: Percent Control
Method in brief: as §1

[24] = target: T7, LCK (Homo sapiens, UniProt P06239); conditions: read-out: Percent Control
T7 construct: purchased KINOMEscan (panel service)
Method in brief: as §1

[25] = target: T8, CDC2L2 (Homo sapiens, UniProt Q9UQ88); conditions: read-out: Percent Control
T8 construct: purchased KINOMEscan (screening platform)
Method in brief: as §1

[26] = test system: EGFR(L747-T751del, Sins); conditions: 10 μM
Method in brief: as §1

[27] = target: T9, MAP3K1 (Homo sapiens, UniProt Q13233); conditions: read-out: Percent Control
T9 construct: purchased KINOMEscan (screening platform)
Method in brief: as §1

[28] = target: T10, RET(V804M) (Homo sapiens, UniProt P07949, V804M); conditions: read-out: Percent Control
T10 construct: purchased KINOMEscan (panel service)
Method in brief: as §1

[29] = target: ABL1(Q252H)-phosphorylated (Homo sapiens, UniProt P00519, Q252H); conditions: read-out: Percent Control
Method in brief: as §1

[30] = target: T11, AURKB (Homo sapiens, UniProt Q96GD4); conditions: read-out: Percent Control
T11 construct: purchased KINOMEscan (screening service)
Method in brief: as §1

[31] = target: IKK-alpha (Homo sapiens, UniProt O15111); conditions: IKK-alpha (Entrez CHUK), read-out: Percent Control
Method in brief: as §1

[32] = target: SYK (Homo sapiens, UniProt P43405); conditions: read-out: Percent Control
Method in brief: as §1

[33] = target: FGFR1 (Homo sapiens, UniProt P11362); conditions: read-out: Percent Control
Method in brief: as §1

[34] = target: T12, EPHA8 (Homo sapiens, UniProt P29322); conditions: read-out: Percent Control
T12 construct: purchased KINOMEscan (panel service)
Method in brief: as §1

[35] = target: EPHB2 (Homo sapiens, UniProt P29323); conditions: read-out: Percent Control
Method in brief: as §1

[36] = target: T13, PIP5K2C (Homo sapiens, UniProt Q8TBX8); conditions: PIP5K2C (Entrez PIP4K2C), read-out: Percent Control
T13 construct: purchased KINOMEscan (screening service)
Method in brief: as §1

[37] = target: T14, JAK1(JH1domain-catalytic) (Homo sapiens, UniProt P23458); conditions: read-out: Percent Control
T14 construct: JAK1(JH1domain-catalytic)
Method in brief: as §1

T14 sequence (P23458 875-1153 limits assumed): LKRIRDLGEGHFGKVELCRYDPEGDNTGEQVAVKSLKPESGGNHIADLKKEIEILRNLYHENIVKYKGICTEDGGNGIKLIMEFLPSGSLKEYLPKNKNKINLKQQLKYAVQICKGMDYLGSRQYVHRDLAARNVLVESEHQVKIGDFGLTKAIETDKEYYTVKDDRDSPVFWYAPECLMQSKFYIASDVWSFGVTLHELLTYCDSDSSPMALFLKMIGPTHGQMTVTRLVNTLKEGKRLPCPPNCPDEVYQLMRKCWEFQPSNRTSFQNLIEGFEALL
Sequence of MLK1 (P80192 whole entry): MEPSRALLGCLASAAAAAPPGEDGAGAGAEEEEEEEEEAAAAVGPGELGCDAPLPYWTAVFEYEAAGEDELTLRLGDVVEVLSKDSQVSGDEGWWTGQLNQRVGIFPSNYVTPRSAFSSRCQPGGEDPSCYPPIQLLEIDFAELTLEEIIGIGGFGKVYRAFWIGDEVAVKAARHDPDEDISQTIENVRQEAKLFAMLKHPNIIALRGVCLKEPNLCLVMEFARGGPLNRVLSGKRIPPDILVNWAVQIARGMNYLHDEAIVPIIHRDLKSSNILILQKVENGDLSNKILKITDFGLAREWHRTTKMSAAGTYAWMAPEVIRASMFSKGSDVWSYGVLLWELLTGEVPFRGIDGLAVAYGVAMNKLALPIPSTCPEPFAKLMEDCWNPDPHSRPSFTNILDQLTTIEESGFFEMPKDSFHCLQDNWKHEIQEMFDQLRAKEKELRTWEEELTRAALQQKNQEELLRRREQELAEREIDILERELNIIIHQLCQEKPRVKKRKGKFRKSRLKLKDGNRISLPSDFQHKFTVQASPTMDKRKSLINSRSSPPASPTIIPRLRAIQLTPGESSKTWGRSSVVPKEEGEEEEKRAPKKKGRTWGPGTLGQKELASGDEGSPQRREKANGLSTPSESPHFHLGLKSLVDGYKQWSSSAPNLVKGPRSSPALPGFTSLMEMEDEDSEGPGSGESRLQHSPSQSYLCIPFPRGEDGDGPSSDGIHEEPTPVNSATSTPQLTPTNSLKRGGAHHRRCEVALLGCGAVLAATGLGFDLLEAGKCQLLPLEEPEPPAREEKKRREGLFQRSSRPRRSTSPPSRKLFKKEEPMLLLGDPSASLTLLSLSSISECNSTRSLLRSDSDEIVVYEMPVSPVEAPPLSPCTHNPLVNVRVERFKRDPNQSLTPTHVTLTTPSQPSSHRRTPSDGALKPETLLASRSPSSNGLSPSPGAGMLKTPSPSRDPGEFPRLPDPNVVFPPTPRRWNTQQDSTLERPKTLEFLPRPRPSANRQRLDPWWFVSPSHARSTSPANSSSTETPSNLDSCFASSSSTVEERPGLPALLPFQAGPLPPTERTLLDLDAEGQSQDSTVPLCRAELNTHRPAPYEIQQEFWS
Sequence of HPK1 (Q92918 whole entry): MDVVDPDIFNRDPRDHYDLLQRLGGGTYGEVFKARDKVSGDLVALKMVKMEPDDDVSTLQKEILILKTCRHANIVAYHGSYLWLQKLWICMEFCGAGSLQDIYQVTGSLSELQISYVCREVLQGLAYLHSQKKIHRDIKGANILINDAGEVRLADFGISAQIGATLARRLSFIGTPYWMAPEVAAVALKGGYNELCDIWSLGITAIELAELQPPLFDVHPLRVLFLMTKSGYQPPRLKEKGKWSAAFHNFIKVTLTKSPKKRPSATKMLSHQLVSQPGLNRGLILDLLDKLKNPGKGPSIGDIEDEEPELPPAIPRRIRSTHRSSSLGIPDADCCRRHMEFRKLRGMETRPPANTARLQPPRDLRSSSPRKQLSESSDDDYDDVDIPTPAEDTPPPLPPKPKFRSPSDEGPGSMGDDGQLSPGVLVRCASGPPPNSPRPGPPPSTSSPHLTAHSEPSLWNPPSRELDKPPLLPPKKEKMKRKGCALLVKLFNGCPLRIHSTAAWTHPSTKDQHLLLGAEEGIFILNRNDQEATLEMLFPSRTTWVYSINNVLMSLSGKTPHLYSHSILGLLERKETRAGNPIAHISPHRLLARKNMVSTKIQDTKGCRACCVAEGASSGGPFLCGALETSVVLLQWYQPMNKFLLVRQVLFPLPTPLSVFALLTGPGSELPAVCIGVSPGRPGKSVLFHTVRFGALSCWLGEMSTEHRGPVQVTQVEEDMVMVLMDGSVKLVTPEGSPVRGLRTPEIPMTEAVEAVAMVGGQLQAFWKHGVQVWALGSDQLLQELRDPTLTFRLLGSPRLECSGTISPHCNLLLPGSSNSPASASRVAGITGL
T6 sequence (Q12866 21-999): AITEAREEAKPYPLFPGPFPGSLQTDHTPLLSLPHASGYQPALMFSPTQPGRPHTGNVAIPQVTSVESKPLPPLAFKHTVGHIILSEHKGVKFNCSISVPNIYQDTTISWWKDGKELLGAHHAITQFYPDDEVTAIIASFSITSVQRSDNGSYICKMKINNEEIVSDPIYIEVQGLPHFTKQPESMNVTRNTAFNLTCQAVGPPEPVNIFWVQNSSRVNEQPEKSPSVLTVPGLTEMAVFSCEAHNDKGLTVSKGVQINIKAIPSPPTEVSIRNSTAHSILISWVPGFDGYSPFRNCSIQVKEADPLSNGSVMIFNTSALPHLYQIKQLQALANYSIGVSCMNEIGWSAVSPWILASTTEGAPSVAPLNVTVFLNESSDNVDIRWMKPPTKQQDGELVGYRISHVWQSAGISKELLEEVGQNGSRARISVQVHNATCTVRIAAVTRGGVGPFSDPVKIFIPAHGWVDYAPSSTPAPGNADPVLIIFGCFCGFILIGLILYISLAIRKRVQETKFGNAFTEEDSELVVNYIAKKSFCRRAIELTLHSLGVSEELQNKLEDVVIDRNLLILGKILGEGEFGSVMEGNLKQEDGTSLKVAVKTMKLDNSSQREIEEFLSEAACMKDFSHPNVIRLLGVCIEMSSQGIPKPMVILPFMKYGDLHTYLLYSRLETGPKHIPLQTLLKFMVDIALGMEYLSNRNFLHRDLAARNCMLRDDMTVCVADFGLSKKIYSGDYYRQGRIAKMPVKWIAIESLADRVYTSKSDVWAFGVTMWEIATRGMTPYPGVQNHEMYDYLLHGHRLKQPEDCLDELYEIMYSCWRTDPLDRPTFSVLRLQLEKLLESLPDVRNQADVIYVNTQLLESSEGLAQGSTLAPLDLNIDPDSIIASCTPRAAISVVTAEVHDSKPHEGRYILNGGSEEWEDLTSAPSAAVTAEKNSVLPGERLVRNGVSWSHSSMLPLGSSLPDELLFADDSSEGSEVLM
T12 sequence (P29322 28-1005): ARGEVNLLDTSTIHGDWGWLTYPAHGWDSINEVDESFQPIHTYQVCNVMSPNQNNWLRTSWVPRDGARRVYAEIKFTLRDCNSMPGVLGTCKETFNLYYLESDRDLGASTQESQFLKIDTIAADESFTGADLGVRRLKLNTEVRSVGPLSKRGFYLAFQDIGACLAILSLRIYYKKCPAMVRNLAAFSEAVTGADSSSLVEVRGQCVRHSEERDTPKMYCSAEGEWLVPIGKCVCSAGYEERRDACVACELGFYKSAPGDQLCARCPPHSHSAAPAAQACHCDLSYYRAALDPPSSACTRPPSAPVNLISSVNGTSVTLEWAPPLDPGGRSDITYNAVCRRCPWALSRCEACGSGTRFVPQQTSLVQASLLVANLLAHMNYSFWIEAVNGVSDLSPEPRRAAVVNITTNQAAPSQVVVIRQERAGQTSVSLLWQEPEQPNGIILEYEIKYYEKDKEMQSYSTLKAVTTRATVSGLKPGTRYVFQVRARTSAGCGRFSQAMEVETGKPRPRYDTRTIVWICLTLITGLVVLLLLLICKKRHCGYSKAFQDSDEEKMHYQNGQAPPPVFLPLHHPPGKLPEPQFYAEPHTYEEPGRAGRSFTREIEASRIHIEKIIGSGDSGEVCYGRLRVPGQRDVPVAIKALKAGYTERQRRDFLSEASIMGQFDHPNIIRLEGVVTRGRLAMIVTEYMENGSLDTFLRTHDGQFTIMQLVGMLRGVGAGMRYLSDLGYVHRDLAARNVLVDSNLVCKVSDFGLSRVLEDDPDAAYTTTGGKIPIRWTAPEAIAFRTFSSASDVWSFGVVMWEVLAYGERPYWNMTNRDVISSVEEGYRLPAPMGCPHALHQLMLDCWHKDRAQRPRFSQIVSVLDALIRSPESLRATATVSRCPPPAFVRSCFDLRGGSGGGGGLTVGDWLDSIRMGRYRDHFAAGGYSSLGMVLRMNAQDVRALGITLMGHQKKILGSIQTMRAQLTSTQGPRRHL
T11 sequence (Q96GD4 whole entry): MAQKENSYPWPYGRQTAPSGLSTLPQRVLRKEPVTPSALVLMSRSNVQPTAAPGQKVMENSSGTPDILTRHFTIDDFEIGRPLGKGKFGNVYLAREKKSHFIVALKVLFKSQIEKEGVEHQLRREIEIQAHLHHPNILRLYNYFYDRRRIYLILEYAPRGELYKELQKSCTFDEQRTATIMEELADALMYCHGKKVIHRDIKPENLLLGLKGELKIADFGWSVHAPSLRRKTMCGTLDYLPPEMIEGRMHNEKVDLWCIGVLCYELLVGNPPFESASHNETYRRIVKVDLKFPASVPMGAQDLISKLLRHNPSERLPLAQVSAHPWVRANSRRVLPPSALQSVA
T13 sequence (Q8TBX8 whole entry): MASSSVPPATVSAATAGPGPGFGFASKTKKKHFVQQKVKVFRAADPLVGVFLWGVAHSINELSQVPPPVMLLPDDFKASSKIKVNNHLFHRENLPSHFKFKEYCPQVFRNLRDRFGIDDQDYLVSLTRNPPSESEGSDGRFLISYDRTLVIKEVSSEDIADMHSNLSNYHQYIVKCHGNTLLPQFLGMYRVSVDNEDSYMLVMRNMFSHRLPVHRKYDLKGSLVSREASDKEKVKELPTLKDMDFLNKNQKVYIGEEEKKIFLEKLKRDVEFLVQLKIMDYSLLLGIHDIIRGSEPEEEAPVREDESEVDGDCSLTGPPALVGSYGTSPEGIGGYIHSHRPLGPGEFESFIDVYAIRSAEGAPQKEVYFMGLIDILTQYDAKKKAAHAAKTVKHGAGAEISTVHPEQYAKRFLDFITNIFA

## Cc1ccc(Nc2ncc3c(n2)N(C)CN(c2cc(NC(=O)c4cccc(C(F)(F)F)c4)ccc2C)C3)cn1 [IA-9, N-(4-methyl-3-(1-methyl-7-((6-methylpyridin-3-yl)amino)-1,4-dihydropyrimido[4,5-d]pyrimidin-3(2H)-yl)phenyl)-3-(trifluoromethyl)benzamide]
[1]
  remaining binding at 10 µM: 0.75%
[2]
  remaining binding at 10 µM: 3.8%
[3]
  remaining binding at 10 µM: 25%
[4]
  remaining binding at 10 µM: 22%
[5]
  remaining binding at 10 µM: 0%
[6]
  remaining binding at 10 µM: 1.2%
[7]
  remaining binding at 10 µM: 0.05%
[8]
  remaining binding at 10 µM: 0.75%
[9]
  remaining binding at 10 µM: 6.1%
[10]
  remaining binding at 10 µM: 20%
[11]
  remaining binding at 10 µM: 7.2%
[12]
  remaining binding at 10 µM: 1.6%
[13]
  remaining binding at 10 µM: 0.55%
[14]
  remaining binding at 10 µM: 0%
[15]
  remaining binding at 10 µM: 5.6%
[16]
  remaining binding at 10 µM: 0%
[17]
  remaining binding at 10 µM: 3.4%
[18]
  remaining binding at 10 µM: 5.7%
[19]
  remaining binding at 10 µM: 3.2%
[20]
  remaining binding at 10 µM: 0%
[21]
  remaining binding at 10 µM: 7%
[22]
  remaining binding at 10 µM: 4.1%
[23]
  remaining binding at 10 µM: 0.55%
[24]
  remaining binding at 10 µM: 0.15%
[25]
  remaining binding at 10 µM: 28%
[26]
  Percent Control: 0.4 % Ctrl
[27]
  remaining binding at 10 µM: 29%
[28]
  remaining binding at 10 µM: 0%
[29]
  remaining binding at 10 µM: 0.2%
[30]
  remaining binding at 10 µM: 15%
[31]
  remaining binding at 10 µM: 1%
[32]
  remaining binding at 10 µM: 4.4%
[33]
  remaining binding at 10 µM: 1.3%
[34]
  remaining binding at 10 µM: 0.15%
[35]
  remaining binding at 10 µM: 0%
[36]
  remaining binding at 10 µM: 19%
[37]
  remaining binding at 10 µM: 2%
